Patent US20080268445A1, “Ant2 Conditional Knockout Mouse and Methods” (Emory University, priority 2002, published 2008)
Entries after “also recorded” stand apart in the source; their conditions may differ. *1 amine or outer side, *2 acyl side, *3 side chain or, on linkers, in order; H or OH if unused. Where a SMILES comes first, the peptide text is derived from it. Bridges are numbered along the chain shown (N, C = ends). Roman numbers before positions name the chains, in order. [ ]: non-standard residue; d: D form. Actinocin(9to1) = Cc1c2oc3c(C)ccc(C(=O)[*:1])c3nc-2c(C(=O)[*:2])c(N)c1=O; NMeV = CN[C@H](C(=O)O)C(C)C; Sar = CNCC(=O)O

Legend:
mtPTP [1] = assay: Ca++-activation of the mtPTP in liver mitochondria, irreversible release of TPP+; format: biochemical, mouse
Procedure: The mitochondria were energized with succinate in the presence of TPP^+. TPP^+ is accumulated into the mitochondrial matrix in proportion to ΔP, and its concentration in the suspension medium is monitored using a TPP^+ sensitive electrode. Aliquots of Ca^++ are then added to the reaction solution, with each addition causing a transient release of TPP^+ as the Ca^++ is taken into the mitochondria at the expense of ΔP. […] At this juncture, ΔP collapses and the mitochondrial TPP^+ is irreversibly released into the suspension medium. The amount of Ca^++ required to cause irreversible release of TPP^+ provides a quantitative measurement of mtPTP sensitivity.
To determine if the ANTs provide a regulatory function for the mtPTP, ANT-deficient and control liver mitochondria were loaded with TPP^+ and then Ca^++ was added in the presence or absence of various mtPTP effectors until the TPP^+ was irreversibly released. The relative levels of Ca^++ required for permeability transition were then compared.
The calcium sensitivity of the mtPTP was calculated from 10 nmol CaCl2 additions to a reaction vessel containing 1 mg of mitochondrial protein in 1.0 ml of 250 mM sucrose, 10 mM MOPS, 2 mM K2HPO4, pH 7.2, and 5 mM succinate. Irreversible release of TPP^+ from the mitochondria was indicative of mtPTP activation.

liver mitochondria = assay: ADP stimulation of respiration in liver mitochondria (oxygen consumption, succinate); format: biochemical, mouse; conditions: liver mitochondria from Ant1−/−, Ant2fl/Y, Alb-Cre (ANT-deficient) animals
Procedure: FIGS. 6A and 6B show ANT1 and ANT2 expression and respiration of control and ANT-deficient liver mitochondria. Liver mitochondria were isolated from Ant1^−/−, Ant2^fl/Y (ANT-control) or Ant1^−/−, Ant2^fl/Y, Alb-cre (ANT-deficient) mice. FIG. 6A: Western blot analysis using antibodies against ANT1 (left) and ANT2 (right). Heart mitochondria were used as a positive control for the presence of ANT1. ANT1 and ANT2, 30 kDa. FIG. 6B: Oxygen consumption was measured using succinate as substrate in ANT-control (left) and ANT-deficient (right) mitochondria. MITOS, addition of 600 μg of mitochondrial protein. ADP, 125 nmol ADP; FCCP (uncoupler), 75 nM.
Respiration and oxidative phosphorylation enzyme activities were measured polarographically and spectrophotometrically (42). The membrane potential was calculated from the mitochondrial uptake of TPP^+ using a TPP^+ sensitive electrode (44-47). The mtPTP was examined in liver 10-week-old Ant1^−/− or +/+, Ant2^fl/Y, Alb-Cre +/− animals.

mouse hepatocytes = assay: Induction of apoptosis in primary hepatocytes, apoptotic nuclei by Hoechst 33258 staining; format: cell-based; conditions: ANT-deficient and ANT-control hepatocytes; agent alone; 12 h
Procedure: Primary hepatocytes from ANT-deficient and ANT-control mice were cultured on collagen-coated cover glasses and treated with Fas ligand and Actinomycin D. After 12 h, cells were stained with Hoechst 33258 and images were acquired with a Zeiss Axio-10 fluorescence microscope. Cells with chromatin condensation and nuclei fragmentation were counted as apoptotic.
Hepatocytes were isolated from 12 to 15 month old anesthetized mice, perfused in situ with collagenase-dispase medium (Invitrogen, Carlsbad, Calif.). The hepatocytes were gently released, filtered and cultured on collagen coated cover glasses or plates in Waymouth's MB-752/1 medium containing 27 mM NaHCO3, 2 mM L-glutamine, 10% fetal calf serum, 0.5 μg/ml insulin, 0.5 μg/ml transferrin, 0.5 ng/ml sodium selenate and 100 nM dexamethasone (49). […]
Fas ligand-TNFα+Actinomycin D induced apoptosis was monitored by detection of apoptotic nuclei by staining with 10 μg/ml of Hoechst 33258 (Molecular Probes, Eugene, Oreg.) (9). Br-A23187-induced cell death after 1 h treatment was monitored by measuring the percentage of lactate dehydrogenase (LDH) released into the culture medium as a percentage of the activity in a Triton X-100 total cell lysate.

mtPTP [2] = conditions: ANT-deficient and ANT-control mitochondria; 1 μM FCCP in the presence of Ca++
Procedure: To determine if the mtPTP could still exist in the absence of ANT, we isolated mitochondria from livers of Ant1^−/−, Ant2^fl/Y, Alb-Cre (ANT-deficient) and Ant1^−/−, Ant2^fl/Y (ANT-control) mice. […] The opening of the pore was monitored by following mitochondrial swelling through decreased light scattering.
Mitochondria (1 mg protein) were incubated in 1.5 ml of the above reaction medium with 16.5 nmol CaCl2. After two minutes 0.1 uM ruthenium red was added followed by FCCP.

[3] = ANT-control (Ant1−/−, Ant2fl/Y) liver mitochondria
[4] = ANT-deficient (Ant1−/−, Ant2fl/Y, Alb-Cre) liver mitochondria

`CN(C)C(=O)/N=N/C(=O)N(C)C` [DIA, diamide] was tested, and the “effect on Ca++ activation of the mtPTP (Ca++ required for permeability transition)” value (shortened to “effect on Ca++ activation of the mtPTP”) (mtPTP [1]; [3]) was “activated the mtPTP” and the “effect on Ca++ activation of the mtPTP” value (mtPTP [1]; [4]) was “activated the mtPTP”.
With `Nc1ncnc2c1ncn2[C@@H]1O[C@H](COP(=O)(O)OP(=O)(O)O)[C@@H](O)[C@H]1O` [ADP, adenosine diphosphate] the “effect on Ca++ activation of the mtPTP” value (mtPTP [1]; [3]) was “strongly inhibited”, the “effect on Ca++ activation of the mtPTP” value (mtPTP [1]; [4]) was “no effect; also recorded: without effect” and the “stimulation of mitochondrial respiration” value (liver mitochondria) was “could not be stimulated”.
In the case of TNFα, the induction of apoptosis (mouse hepatocytes) is reported as “did not induce apoptosis”.
`N#CC(C#N)=NNc1ccc(OC(F)(F)F)cc1` [FCCP, carbonyl cyanide p-(trifluoromethoxy)phenylhydrazone] was tested, and the “FCCP-induced mtPTP activation (mitochondrial swelling)” value (mtPTP [2]) was “responded equally well”.
In the case of `Cc1c2oc3c(C)ccc(C(=O)N[C@@H]4C(=O)N[C@H](C(C)C)C(=O)N5CCC[C@H]5C(=O)N(C)CC(=O)N(C)[C@@H](C(C)C)C(=O)O[C@@H]4C)c3nc-2c(C(=O)N[C@@H]2C(=O)N[C@H](C(C)C)C(=O)N3CCC[C@H]3C(=O)N(C)CC(=O)N(C)[C@@H](C(C)C)C(=O)O[C@@H]2C)c(N)c1=O` [Actinomycin D] (I: T[dV]P[Sar][NMeV] / II: T[dV]P[Sar][NMeV]; ester I:1-I:C, II:1-II:C; linker I:N-II:N via Actinocin(9to1)), the induction of apoptosis (mouse hepatocytes) is reported as “did not induce apoptosis”.
`CC(C)(C)OO` [t-H2O2, Tert-butyl hydroperoxide] was tested, and the “effect on Ca++ activation of the mtPTP” value (mtPTP [1]; [3]) was “activated the mtPTP” and the “effect on Ca++ activation of the mtPTP” value (mtPTP [1]; [4]) was “activated the mtPTP”.
`C=C1[C@@H]2CC[C@H]3[C@]4(C)C[C@H](O[C@@H]5O[C@H](CO)[C@@H](OS(=O)(=O)O)[C@H](OS(=O)(=O)O)[C@H]5OC(=O)CC(C)C)C[C@@H](C(=O)O)[C@H]4CC[C@]3(C2)[C@H]1O` [ATR, atractyloside] was tested, and the “effect on Ca++ activation of the mtPTP” value (mtPTP [1]; [3]) was “activated the mtPTP” and the “effect on Ca++ activation of the mtPTP” value (mtPTP [1]; [4]) was “no effect”.
